# Experimental data from article PMC9227781, “Inhibitors of O-Acetylserine Sulfhydrylase with a Cyclopropane-Carboxylic Acid Scaffold Are Effective Colistin Adjuvants in Gram Negative Bacteria” (Pharmaceuticals, 2022).
# System: S. Typhimurium DW378
# Test: Target engagement: MIC of 12h and colistin in cysK/cysM-inactive mutant strain
# Format: cell-based, Salmonella enterica serovar Typhimurium
# Experimental: In this regard, compound 12h has been selected because of its favorable overall properties. It has been tested at a concentration of 32 μg/mL, in order to ensure complete inactivation of both the OASS isoforms. […] The MIC assays of 12h and colistin alone on the DW378 strain have been performed and they have been compared with those obtained on the WT strain. […] But, on the other hand, the MIC value of colistin was […] lower on the mutant strain than that on the WT, a result that overlapped those achieved with the association of colistin and 12h in WT cells.
# MIC values were evaluated following CLSI guidelines with some modifications, as referred to in previous work. Twofold dilutions 25.6–0.05 mg/mL of the tested compounds were performed in DMSO in separate 96-well microtiter U-plates (Greiner, Milan, Italy). In a different 96-well microtiter U-plate, for each well of the replicates, 49 µL of broth medium were added. Then, in each well of the plate, one microliter of each compound at variable dilution in DMSO was added. For each test, three independent experiments with three replicates each were performed.
# Antimicrobial activity of associations between the different compounds and colistin (Sigma-Aldrich, St. Louis, MO, USA, lot n. 049M-4836 V) was tested with checkerboard assay with minor modifications, as mentioned in the previous work. For each assay, three experiments with three replicates each were assessed. For each compound tested concentration, 96-wells microtiter U-plates were prepared with twofold serial dilutions of colistin in MHB starting from the MIC value (µg/mL) for ten consecutive dilutions in 50 µL of broth. In each well of the same replicate, 1 µL of each compound in DMSO was added at a fixed concentration, 100 times higher than the final desired concentration (3.2; 1.6; 0.8 mg/mL). Subsequently, 49 µL of the bacterial suspension at a concentration of 10^6 CFU/mL, adjusted spectrophotometrically as reported above, was added to each well, reaching the final bacterial concentration of 5 × 10^5 CFU/mL. Growth and sterility controls were performed for each experiment and for each replicate. Finally, the plates were incubated at 37 °C in aerobic atmosphere for 24 h. After incubation, plates were read by unaided eye with a microtiter reading mirror and then the OD of each well of the plates was measured spectrophotometrically at 620 nm. MIC values were calculated as the arithmetic mean ± SD of the unaided eye reading and the inhibition of growth for each tested dilution was calculated from the OD values (mean ± SD).
# * This strain is defective for the expression of cysK and cysM genes, encoding for isozymes OASS-A and B. The genotypes of this strain are trpC109, cysK1772, and cysM1770. […]
smiles,measurement,setting,value
"CCOC(=O)C1(Cc2ccc(C)cc2)CC1c1cccc(N2CC(C)OC(C)C2)c1 (stereo not drawn) [Compound 12h, trans-ethyl 2-(3-(2,6-dimethylmorpholino)phenyl)-1-(4-methylbenzyl)cyclopropanecarboxylate]",MIC,"Salmonella enterica, TYPHIMURIUM, 12 h, read-out: MIC 12h (μg/mL)",> 512 µg/mL
same,MIC Colistin,"colistin in combination with 12h at 32 μg/mL, DW378 mutant strain",0.141 ± 0.09 µg/mL
